Measurements as given in patent US12213479B2, “Monoterpenoid/phenylpropanoid-containing compounds and methods of their making and use as herbicides” (KITTRICH CORPORATION, priority 2016, dated 2025).

Tests used:
soybeans [1] = assay: Germination assay, soybeans coated with compound; format: in vivo, soybean; conditions: beans coated in 1% weight compound/weight bean
Text: Soybeans were susceptible to Aphis glycines infestation and were not determined to be a biotype that was resistant to infestation, which could confide results. Germination typically occurred between 3-5 days after moistening.

Soybean plants = assay: Soil drench assay, soybean plants; format: in vivo; design: key to phytotoxicity (qualitative), soil drench: NOE: No Observable Effect; XXX: Dead; -: the lowest phytotoxic effect; --: phytotoxicity that did not result in death; ---: phytotoxicity that did not result in death; ------: the highest; conditions: for phytotoxicity (qualitative), soil drench: Soybean, 40 mL
Description: Soybean plants were planted under 1 cm of potting soil and watered every 2-3 days as necessary. Plants were grown in pots (6″ wide×4.5″ deep) with approximately 800 mL of soil for each plant. Seeds germinated approximately 3-5 days after being planted. Plants were grown in a greenhouse under a constant temperature and light environment (25±5° C., 12 hr: 12 hr light: dark cycle). Plants were grown until reaching 1-2 weeks old and 3-4 weeks old; these plants served as the “young” and “old” plants in this study, respectively.
Formulations of the various active ingredients were created using the monoterpenoid derivatives, potassium hydroxide, and Triton-X 100™ to aid in the solvation of the active ingredient. Formulations consisted of 0.5%-1% active ingredient by weight (0.5-1 g/100 ml water), with a 1:1 molar ratio of potassium hydroxide used to aid in the solvation (135-269 mg/100 mL for both thymyloxyacetic acid and carvacryloxyacetic acid). […] Formulations were applied to the soil next to the base of the stem of the plant to avoid foliar contact. Observations were performed 2 days and 3 weeks after soil drench to determine the effects of the treatments on the various types and stages of plants.

Corn plants = assay: Soil drench assay, corn plants; format: in vivo; design: key to phytotoxicity (qualitative), soil drench: NOE: No Observable Effect; XXX: Dead; -: the lowest phytotoxic effect; --: phytotoxicity that did not result in death; ---: phytotoxicity that did not result in death; ------: the highest; conditions: for phytotoxicity (qualitative), soil drench: Corn, 40 mL
Description: Corn plants were planted under ½″ of potting soil and watered every 2-3 days as necessary. Plants were grown in potting plants (6″ wide×4.5″ deep) with approximately 800 mL of soil for each plant. Seeds germinated approximately 4-7 days after being planted. Plants were grown in a greenhouse under a constant temperature and light environment (25±5° C., 12 hr: 12 hr light: dark cycle). Plants were grown until reaching 1-2 weeks old and 3-4 weeks old; these plants served as the “young” and “old” plants in this study, respectively. Formulations of the various active ingredients were created using the monoterpenoid derivatives, potassium hydroxide, and Triton-X 100™ to aid in the solvation of the active ingredient. […] Formulations were applied to the soil next to the base of the stem of the plant to avoid foliar contact. Observations were performed 2 days and 3 weeks after soil drench to determine the effects of the treatments on the various types and stages of plants.

soybeans [2] = assay: Pre-emergence assay, soybean; format: in vivo; conditions: for pre-emergent effect on soybeans (words): 1%, 3-weeks after application; for qualitative growth assessment, pre-emergence: Soy, soil treated with 40 ml of 1% solution 1 day after planting, 3 weeks after application
Description: Soybean plants were planted under 1 cm of potting soil and watered every 2-3 days as necessary. Plants were grown in pots (6″ wide×4.5″ deep) with approximately 800 mL of soil for each plant. Plants germinated approximately 3-5 days after being planted. Plants were grown in a greenhouse under a constant temperature and light environment (25±5° C., 12 hr: 12 hr light: dark cycle).
(§1) 1-day after seeds/beans were planted, soil was drenched with 40 ml of formulation with 1% active ingredient. This was done to assess germination inhibition in the soil. […] Qualitative growth assessment was made by comparing the treated plants to the untreated controls.

Wood sorrel = assay: Pre-emergence assay, wood sorrel; format: in vivo; conditions: for pre-emergent effect on wood sorrel (words): 1%, 3-weeks after application; for qualitative growth assessment, pre-emergence: Sorrel, soil treated with 40 ml of 1% solution 1 day after planting, 3 weeks after application
Description: as §1

[3] = test system: Pigweed (Amaranthus palmeri); assay: Weed soil drench assay, pigweed; format: in vivo; conditions: for Percentage mortality: Pigweed, 40 mL of 5% solution, soil drench; for chlorosis and phytotoxicity: pigweed, 40 ml of 5%, 2 days after application
Description: Pigweed plants were obtained from the wild in prairie fields in Iowa. Plants were carefully transplanted into pots (6″ wide×4.5″ deep) with approximately 800 mL of soil for each plant. Plants were maintained in a greenhouse under a constant temperature and light environment (25±5° C., 12 hr: 12 hr light: dark cycle). Plants were watered every 2-3 days as needed.
(§2) Formulations of the various active ingredients were created using the monoterpenoid derivatives, potassium hydroxide, and Triton-X 100™ to aid in the solvation of the active ingredient. Formulations included 5% active ingredient by weight (0.5-1 g/100 ml water), with a 1:1 molar ratio of potassium hydroxide used to aid in the solvation (135-269 mg/100 mL for both thymyloxyacetic acid and carvacryloxyacetic acid). […] Observations were performed 2 days and 3 weeks after soil drench to determine the effects of the treatments on the various types and stages of plants. Phytotoxicity is reported as percentage of total plants treated compared to a control treatment that was exposed to a similar formulation (without the active monoterpenoid derivatives).

[4] = test system: Dandelion (Taraxacum officinale); assay: Weed soil drench assay, dandelion; format: in vivo; conditions: for Percentage mortality: Dandelions, 40 mL of 5% solution, soil drench; for chlorosis and phytotoxicity: dandelions, 40 mL of 5%, 2 days after application
Description: (§3) Dandelion seeds were obtained from native prairie fields in Ames, IA. Individual seeds were sown for each pot (6″ wide×4.5″ deep) with approximately 800 mL of soil for each plant. Only plants that germinated were used for the study. Plants were treated 1-2 weeks post emergence. Plants were watered every 2-3 days as needed.
as §2

[5] = test system: Giant Foxtail (Setaria faberi); assay: Weed soil drench assay, giant foxtail; format: in vivo; conditions: for Percentage mortality: Giant Foxtail, 40 mL of 5% solution, soil drench; for chlorosis and phytotoxicity: giant foxtail, 40 mL of 5%, 2 days after application
Description: as §3, with “Giant foxtail” for “Dandelion”, “the Department of Agronomy at Iowa State University. Three” for “native prairie fields in Ames, IA. Individual”
as §2

[6] = test system: treated weeds from each species; assay: Weed soil drench assay, all treated weed species; format: in vivo; conditions: 5% soil drench; observed at two days after the initial treatment
Description: as §2

[7] = 2-days after treatment, Old Plants, 0.50%
[8] = 2-days after treatment, Old Plants, 1%
[9] = 2-days after treatment, Young Plants, 0.50%
[10] = 3-weeks after treatment, Old Plants, 0.50%
[11] = 3-weeks after treatment, Young Plants, 0.50%
[12] = 3-weeks after treatment, Young Plants, 1%
[13] = 2-days after treatment, Young Plants, 1%
[14] = 3-weeks after treatment, Old Plants, 1%
[15] = young plants, 2 days after exposure, both concentrations
[16] = listed as Carvacryloxyacetic acid

SMILES | inhibition of soybean germination/growth (words) (soybeans [1]) | phytotoxicity (qualitative), soil drench (Soybean plants; [7]) | phytotoxicity (qualitative), soil drench (Soybean plants; [8]) | phytotoxicity (qualitative), soil drench (Soybean plants; [9]) | phytotoxicity (qualitative), soil drench (Soybean plants; [10]) | phytotoxicity (qualitative), soil drench (Soybean plants; [11]) | phytotoxicity (qualitative), soil drench (Soybean plants; [12]) | effect on corn plants, soil drench (Corn plants; 3 weeks after exposure) | phytotoxicity (qualitative), soil drench (Corn plants; [7]) | phytotoxicity (qualitative), soil drench (Corn plants; [8]) | phytotoxicity (qualitative), soil drench (Corn plants; [9]) | phytotoxicity (qualitative), soil drench (Corn plants; [13]) | phytotoxicity (qualitative), soil drench (Corn plants; [10]) | phytotoxicity (qualitative), soil drench (Corn plants; [14]) | phytotoxicity (qualitative), soil drench (Corn plants; [11]) | phytotoxicity (qualitative), soil drench (Corn plants; [12]) | effect on corn plants, soil drench (Corn plants; [15]) | pre-emergent effect on soybeans (words) (soybeans [2]) | qualitative growth assessment, pre-emergence (soybeans [2]) | pre-emergent effect on wood sorrel (words) (Wood sorrel) | also measured
Cc1ccc(C(C)C)cc1OCC(=O)O [carvacryloxyacetic acid, 2-(5-isopropyl-2-methylphenoxy)acetic acid] | prevented the growth of soybeans | -- | --- | --- | XXX | XXX | XXX | caused phytotoxicity | - | -- | - | - | XXX | XXX | XXX | -- | did not show any significant effects | completely prevented from growing | XXX (plant death) | completely prevented from growing | effect on corn plants, soil drench (Corn plants; 3 weeks, 1%): did not cause mortality; effect on corn plants, soil drench (Corn plants; older plants, 2-days, 0.5%): did not cause any significant effects; pre-emergent effect on soybeans (words) (soybeans [2]; [16]): prevented the emergence of soybean plants entirely; pre-emergent effect on wood sorrel (words) (Wood sorrel; [16]): significantly inhibited the growth; qualitative growth assessment, pre-emergence (Wood sorrel): − −; Percentage mortality ([3]; 2-days after treatment): 100%; Percentage mortality ([3]; 3-weeks after treatment): 100%; chlorosis and phytotoxicity [3]: significant chlorosis and phytotoxicity; Percentage mortality ([4]; 2-days after treatment): 100%; Percentage mortality ([4]; 3-weeks after treatment): 100%; chlorosis and phytotoxicity [4]: significant chlorosis and phytotoxicity; Percentage mortality ([5]; 2-days after treatment): 100%; Percentage mortality ([5]; 3-weeks after treatment): 100%; chlorosis and phytotoxicity [5]: significant chlorosis and phytotoxicity; treated weeds killed, each species [6]: 100%
Cc1ccc(C(C)C)c(OCC(=O)O)c1 [thymyloxyacetic acid, 2-(2-isopropyl-5-methylphenoxy)acetic acid] | prevented the growth of soybeans | - | - | -- | - | XXX | XXX | caused phytotoxicity | -- | --- | - | - | XXX | XXX | XXX | XXX | did not show any significant effects | most susceptible | − − − | significantly inhibited | phytotoxicity (qualitative), soil drench (Soybean plants; [13]): ---; effect on soybean plants, soil drench (Soybean plants; old plant, 3 weeks after exposure, 0.5%): significant wilting and chlorosis; effect on soybean plants, soil drench (Soybean plants; old plants, 3 weeks after exposure, 1%): experienced mortality; mortality of soybean plants, soil drench (Soybean plants; young plants, 3 weeks after exposure): 100%; effect on soybean plants, soil drench (Soybean plants; young plants, 2 days after exposure, 0.5%): Minor inhibition; effect on soybean plants, soil drench (Soybean plants; young plants, 2 days after exposure, 1%): major inhibition; effect on corn plants, soil drench (Corn plants; older plants, 2 days after treatment, 0.5% and 1%): significant phytotoxic effects; pre-emergent effect on soybeans (words) (soybeans [2]; listed as Thymyloxyacetic acid): major inhibition of growth; pre-emergent effect on wood sorrel (words) (Wood sorrel; listed as Thymyloxyacetic acid): major inhibition of growth; qualitative growth assessment, pre-emergence (Wood sorrel): −; Percentage mortality ([3]; 2-days after treatment): 100%; Percentage mortality ([3]; 3-weeks after treatment): 100%; chlorosis and phytotoxicity [3]: significant chlorosis and phytotoxicity; Percentage mortality ([4]; 2-days after treatment): 100%; Percentage mortality ([4]; 3-weeks after treatment): 100%; chlorosis and phytotoxicity [4]: significant chlorosis and phytotoxicity; Percentage mortality ([5]; 2-days after treatment): 100%; Percentage mortality ([5]; 3-weeks after treatment): 100%; chlorosis and phytotoxicity [5]: significant chlorosis and phytotoxicity; treated weeds killed, each species [6]: 100%
